# Results from PMC7397336, “5-(4H)-Oxazolones and Their Benzamides as Potential Bioactive Small Molecules” (Molecules, 2020).
# pIC50: −log10 of the molar value. Values joined by “and” are separate entries in the source; they are usually repeats but may differ in a detail not shown here. Equal entries are not always repeated. Marks after values point to notes of the source that are not given here.
# Columns and labels:
# [1] = system: acetic acid induced writhing; assay: Anti-nociception, acetic acid writhing test; format: in vivo, Fisher 344 rats; details: 0.0057 mmol/kg body weight i.p., 0.6% acetic acid
# From the text: The animals (Fisher 344 rats), which have been bred in our laboratory, were housed under standard conditions and received a diet of commercial food pellets and water ad libitum during the maintenance but they were entirely fasted during the experiment period. Both sexes were used while females pregnant were excluded. Each group was composed of 6–15 animals. Our studies were in accordance with recognized guidelines on animal experimentation (guidelines for the care and use of laboratory animals published by the Greek Government 160/1991, based on EU regulations 86/609). Rats were kept in the Centre of the School of Veterinary Medicine (EL54 BIO42), Aristotle University of Thessaloniki, which is registered by the official state veterinary authorities (presidential degree 56/2013, in harmonization with the European Directive 2010/63/EEC). The experimental protocols were approved by the Animal Ethics Committee of the Prefecture of Central Macedonia (no. 270079/2500). In order to study the analgesic activity of the tested compound, pain is provoked with acetic acid. Three groups for each compound were used with five animals per group. We followed our previous presented method. After treatment with the tested compounds (0.0057 mmol/kg body weight; intraperitoneally) in group 1, 2nd group was used as a positive control (aspirin; 0.0057 mmol/kg body weight i.p.) and another group (3rd) served as the control in which saline was administered (negative control). After 30 min, 0.6% acetic acid (1 mL/kg body weight) was injected i.p. The number of writhes was recorded for each animal every 5 min during a subsequent 30 min period.
# trypsin = molecular target: T1, trypsin (Bos taurus, UniProt P00760); assay: Inhibition of trypsin induced proteolysis; format: biochemical
# T1 sequence (P00760 24-246): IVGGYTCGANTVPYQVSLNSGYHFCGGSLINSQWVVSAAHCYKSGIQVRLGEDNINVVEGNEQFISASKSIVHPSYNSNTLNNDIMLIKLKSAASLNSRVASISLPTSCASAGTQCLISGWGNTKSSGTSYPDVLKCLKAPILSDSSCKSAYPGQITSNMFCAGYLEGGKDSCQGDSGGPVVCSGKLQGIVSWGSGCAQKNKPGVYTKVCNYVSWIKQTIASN
# Protocol: (§1) Each in vitro experiment was performed at least in triplicate and the standard deviation of absorbance was less than 10% of the mean. For the in vitro assays, a stock solution (1% DMSO in the appropriate buffer with the tested compound diluted under sonification) was prepared from which several dilutions were made with the appropriate buffer.
# The tested compounds (10 µL) were dissolved in DMSO (final concentration 100 µM), with phosphate buffer (pH = 7.6) to give 0.005–0.1 mM solutions, and 100 µL trypsin (1 mg/10 mL) were preincubated at 37 °C for 30 min. Then, 200 µL of albumin (6 mg in 3 mL of distilled water) was added and incubated again at 37 °C for 24 h. After the incubation 1 mL trichloroacetic acid (5% w/w) was added to terminate the reaction. The mixture is centrifugated, the water layer is collected and monitored at 280 nm.
# [2] = Inhibition of linoleic acid lipid peroxidation (AAPH)
# From the text: Azo compounds, like AAPH, generating free radicals through spontaneous thermal decomposition are useful for in vitro studies of free radical production. Production of conjugated diene hydroperoxide by oxidation of sodium linoleate in an aqueous solution is monitored at 234 nm. This assay can be used to follow oxidative changes and to understand the contribution of each tested compound. […] It seems that the presence of moiety Ar (Scheme 1) is mainly correlated with the antioxidant result. The nature of the heteroatom O/S in Ar substituent in the 5-membered oxazolone ring (compounds 2c and 2e) influences the biological response. The replacement of the thienyl group in 2c by a furyl group (2e) leads to a 31% decrease of the antioxidant ability.
# as §1
# The AAPH-induced oxidation of linoleic acid measures the ability of an antioxidant to prevent oxidation of linoleic acid sodium salt induced by alkylperoxyl radicals, generated from the water soluble azo compound 2,2′-azobis(2-amidinopropane) dihydrochloride (AAPH). The assay was performed according to our previous publications. Trolox was used as reference compound.
# soybean lipoxygenase = molecular target: T2, soybean lipoxygenase (Glycine max, UniProt P08170); assay: Soybean lipoxygenase inhibition study; format: biochemical; details: for inhibition at 100 µM: read-out: LOX % inhibition 100 μM; for pIC50: soybean lipoxygenase, sodium linoleate 0.1 mM, read-out: LOX IC50
# T2 construct: purchased Sigma Chemical, Co. (St. Louis, MO, USA)
# T2 sequence (P08170 1-839): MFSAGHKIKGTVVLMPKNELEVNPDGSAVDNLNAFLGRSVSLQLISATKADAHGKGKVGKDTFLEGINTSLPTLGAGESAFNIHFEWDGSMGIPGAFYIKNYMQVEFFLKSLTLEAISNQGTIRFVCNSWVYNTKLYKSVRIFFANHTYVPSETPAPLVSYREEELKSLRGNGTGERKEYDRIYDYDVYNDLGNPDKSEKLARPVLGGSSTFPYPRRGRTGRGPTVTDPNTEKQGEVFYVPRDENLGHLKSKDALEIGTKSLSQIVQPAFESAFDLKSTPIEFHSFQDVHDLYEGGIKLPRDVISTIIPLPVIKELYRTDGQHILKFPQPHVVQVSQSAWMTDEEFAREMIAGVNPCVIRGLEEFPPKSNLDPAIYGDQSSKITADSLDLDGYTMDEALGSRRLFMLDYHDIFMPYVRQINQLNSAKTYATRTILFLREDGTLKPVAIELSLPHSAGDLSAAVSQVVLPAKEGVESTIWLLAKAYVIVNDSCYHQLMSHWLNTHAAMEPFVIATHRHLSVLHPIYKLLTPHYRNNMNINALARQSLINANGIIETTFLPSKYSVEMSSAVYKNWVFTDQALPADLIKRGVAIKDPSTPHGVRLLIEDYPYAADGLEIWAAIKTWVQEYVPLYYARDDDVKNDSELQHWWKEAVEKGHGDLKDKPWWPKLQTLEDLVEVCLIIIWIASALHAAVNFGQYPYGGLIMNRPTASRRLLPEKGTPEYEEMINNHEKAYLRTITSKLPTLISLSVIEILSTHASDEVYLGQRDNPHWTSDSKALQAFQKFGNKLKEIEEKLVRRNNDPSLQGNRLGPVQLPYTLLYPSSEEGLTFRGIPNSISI
# Protocol: For the in vitro assays, a stock solution (1% DMSO in the appropriate buffer with the tested compound diluted under sonification) was prepared from which several dilutions were made with the appropriate buffer. DMSO solution of the tested compound (stock solutions 10 mM) was incubated with sodium linoleate (0.1 mM) and 0.2 mL of soybean lipoxygenase solution (1/9 × 10^−4 w/v in saline) at room temperature. The test follows our previous published methods. […] Several concentrations were used to determine the IC50.
# mushroom tyrosinase = mushroom tyrosinase (Agaricus bisporus, UniProt C7FF04); assay: Tyrosinase inhibition assay; format: biochemical; details: L-Dopa substrate, read-out: ΤyrI% 100 μM (inhibition of mushroom tyrosinase)
# Chain of mushroom tyrosinase (G1K3P4 entry or part of it): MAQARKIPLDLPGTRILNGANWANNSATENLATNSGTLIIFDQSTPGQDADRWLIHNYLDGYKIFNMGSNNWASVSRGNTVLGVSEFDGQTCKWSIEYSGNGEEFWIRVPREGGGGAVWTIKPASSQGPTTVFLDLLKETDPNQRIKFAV
# Chain of mushroom tyrosinase (C7FF04 1-392): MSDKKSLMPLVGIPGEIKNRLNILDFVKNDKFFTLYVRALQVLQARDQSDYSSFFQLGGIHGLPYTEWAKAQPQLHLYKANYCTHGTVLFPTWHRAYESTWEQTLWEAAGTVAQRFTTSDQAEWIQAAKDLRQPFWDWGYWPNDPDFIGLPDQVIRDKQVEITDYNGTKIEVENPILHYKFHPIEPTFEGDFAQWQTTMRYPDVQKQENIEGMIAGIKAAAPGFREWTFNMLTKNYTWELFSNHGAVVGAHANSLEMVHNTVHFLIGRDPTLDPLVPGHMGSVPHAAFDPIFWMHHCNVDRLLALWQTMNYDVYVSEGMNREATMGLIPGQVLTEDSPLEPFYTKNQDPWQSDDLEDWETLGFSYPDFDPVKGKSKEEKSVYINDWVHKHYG
# Protocol: For the in vitro assays, a stock solution (1% DMSO in the appropriate buffer with the tested compound diluted under sonification) was prepared from which several dilutions were made with the appropriate buffer.
# [3] = system: carrageenin-induced rat paw edema; assay: Inhibition of the carrageenin-induced rat paw edema; format: in vivo, Fisher 344 rats; details: 0.0057 mmol/kg body weight i.p., 3.5 h after carrageenin
# Protocol: For the estimation of anti-inflammatory potential of the tested compounds the rat carrageenin induced paw edema assay was employed as a model for acute inflammation. Indomethacin, as a reference drug, and our compounds were administered intraperitoneally in order to ensure systemic response via fast bioavailability, while carrageenin’s intradermal administration, as inflammatory agent, aimed to local response. The development of the edema induced by carrageenin has been described as a biphasic event. The early phase of the inflammatory response, lasting 0.5–1.5 h, is chiefly mediated by histamine and serotonin release inducing hyperalgesia, swelling and redness, while the later phase, lasting 3–6 h, is sustained presumably by prostaglandin release. This model reliably predicts the anti-inflammatory efficacy of the NSAIDs during the second phase, since non-steroidal anti-inflammatory drugs (NSAIDs) present weak activity in the first phase. Therefore, using this protocol we could evaluate our compounds as potential anti-inflammatory agents, as a result of inhibition of prostaglandin amplification.
# The animals (Fisher 344 rats), which have been bred in our laboratory, were housed under standard conditions and received a diet of commercial food pellets and water ad libitum during the maintenance but they were entirely fasted during the experiment period. Both sexes were used while females pregnant were excluded. Each group was composed of 6–15 animals. Our studies were in accordance with recognized guidelines on animal experimentation (guidelines for the care and use of laboratory animals published by the Greek Government 160/1991, based on EU regulations 86/609). […]
# Edema was induced in the right hind paw of the rats by the intradermal injection of 0.1 mL 2% carrageenin in water we followed our previous published method. […] The change in paw weight was compared with that in control animals (treated with water) and expressed as a percent inhibition of the edema CPE % values. […]
Iptr% 10 µM (% trypsin inhibition) (trypsin),melting point [°C],inhibition at 100 µM (soybean lipoxygenase) [%],pIC50 (soybean lipoxygenase),inhibition at 100 µM (mushroom tyrosinase) [%],Compound,Writhing Inhibition (%) [1] [%],AAPH% 100 µM (anti-lipid peroxidation) [2] [%],CPE (%) inhibition of carrageenin-induced rat paw edema [3]
,,,,,"CC(=O)Oc1ccccc1C(=O)O [Aspirin, aspirin, reference compound]",77,,
no,135 to 138,< 50,4.00,,"O=C(N/C(=C\c1ccccc1)C(=O)N1CCOCC1)c1ccccc1 [Compound 3a, (Z)-N-(3-morpholino-3-oxo-1-phenylprop-1-en-2-yl)benzamide]",,69,
,265 to 268,36,,33,"O=C(N/C(=C\c1ccccc1)C(=O)N1CCN(C(=O)/C(=C/c2ccccc2)NC(=O)c2ccccc2)CC1)c1ccccc1 [Compound 4a, N,N′-((1Z,1′Z)-piperazine-1,4-diylbis(3-oxo-1-phenylprop-1-ene-3,2-diyl))bisbenzamide]",32,82,44 * % and 44%
,292 to 294,,4.39,42,"O=C(N/C(=C\c1cccs1)C(=O)N1CCN(C(=O)/C(=C/c2cccs2)NC(=O)c2ccccc2)CC1)c1ccccc1 [Compound 4c, N,N′-((1Z,1′Z)-piperazine-1,4-diylbis(3-oxo-1-(thiophen-2-yl)prop-1-ene-3,2-diyl))bisbenzamide]",58,93,56 ** % and 56%
